Results on three compounds are retold here after patent US20240041042A1, “1-(PYRIDYL)-5-AZINYLPYRAZOLE DERIVATIVES, AND THEIR USE FOR CONTROL OF UNDESIRED PLANT GROWTH” (Bayer Aktiengesellschaft, priority 2020, published 2024).

The structures appear in SMILES notation. Read-outs that look alike come from different tables or passages of the source.

Common to all, as to assay type: in vivo
For data set [1], the system named is Digitaria sanguinalis (DIGSA). Kind of data set: Pre-emergence herbicidal action against DIGSA. Summed up: (§1)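 Read-out is visual percent damage relative to untreated pots, with 100% meaning dead plants and 0% meaning no difference, assessed roughly three weeks after treatment. Compounds were applied pre-emergence to the covering soil at up to 320 g/ha.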
Data set [2] has as its system Oryza sativa (ORYSA). Particulars: pre-emergence, crop plant compatibility, in comparison to untreated controls. Summed up: (§2)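 Scoring: visual, % of untreated control, about 3 weeks after a pre-emergence application to the soil surface. Application used WP or EC formulations diluted in water with 0.5% additive at 600 l/ha; dosage levels are marked by suffixes a, b and c.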

Data set [3] relates to Triticum aestivum (TRZAS). Particulars: pre-emergence, crop plant compatibility, in comparison to untreated controls. Summed up: as §2
The test system of data set [4] is Zea mays (ZEAMX). Particulars: pre-emergence, crop plant compatibility, in comparison to untreated controls. In a few lines:
as §2

Data set [5] relates to Alopecurus myosuroides (ALOMY). Kind of data set: Post-emergence herbicidal action against ALOMY. Particulars: 80 g/ha, visual rating about 3 weeks after treatment vs untreated controls (100% = plants have died, 0% = like control plants). In a few lines:
(§3)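 Doses of 320 g/ha or lower, suffixes a, b and c marking different dosages, were applied post-emergence at the one-leaf stage in 600 l/ha water with 0.5% additive. Damage was assessed visually after about 3 weeks in the greenhouse.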

For data set [6], the system named is Setaria viridis (SETVI). Kind of data set: Post-emergence herbicidal action against SETVI. Particulars: dosage 80 g/ha. Summed up: as §3
Data set [7] deals with Alopecurus myosuroides (ALOMY). Kind of data set: Pre-emergence herbicidal action against ALOMY. Particulars: 320 g/ha; scored visually after about 3 weeks; 100% = plants have died. In a few lines:
as §1

In another data set the test system is Glycine max (GLXMA). Kind of data set: Post-emergence crop plant compatibility, GLXMA. Particulars: post-emergence, effect in comparison to untreated controls. On the procedure: Seeds of monocotyledonous and dicotyledonous weeds and crop plants are placed in sandy loam in plastic or organic planting pots, covered with soil and cultivated in a greenhouse under controlled growth conditions. 2 to 3 weeks after sowing, the test plants are treated at the one-leaf stage. The compounds of the invention, formulated in the form of wettable powders (WP) or as emulsion concentrates (EC), are then sprayed onto the green parts of the plants as aqueous suspension or emulsion with addition of 0.5% additive at a water application rate of 600 l/ha (converted). After the test plants have been kept in the greenhouse under optimum growth conditions for about 3 weeks, the activity of the preparations is rated visually in comparison to untreated controls. For example, 100% activity=the plants have died, 0% activity=like control plants.
The observed effects on selected crop plants are reported here in comparison to the untreated controls (values in %). The appendices “a”, “b” and “c” give differentiation by dosage used with otherwise the same crop plants tested.

The test system of data set [8] is Oryza sativa (ORYSA). Particulars: crop plant compatibility. Summed up:
(§4)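 One-leaf-stage crops (2–3 wk post-sowing, sandy loam, greenhouse) sprayed on green parts; 0.5% additive, 600 l/ha water. Rated by eye ~3 wk later, % vs untreated; suffixes a/b/c mark different dosages.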

The test system of data set [9] is Triticum aestivum (TRZAS). Particulars: crop plant compatibility, effect vs untreated controls. Summed up:
as §4

In data set [10] the test system is Zea mays (ZEAMX). Particulars: for Post-emergence action against ZEAMX in % (crop plant compatibility): 20 g/ha, effect in comparison to untreated controls; for Post-emergence action against ZEAMX in %: crop plant compatibility, 80 g/ha, effect vs untreated controls. In a few lines: as §4
The subject of another data set is Viola tricolor (VIOTR). Kind of data set: Pre-emergence herbicidal action against VIOTR. In a few lines:
as §1

Data set [11] concerns Matricaria inodora (MATIN). Kind of data set: Pre-emergence herbicidal action against MATIN. Particulars: dosage 320 g/ha. Summed up:
as §1

Data set [12] relates to Amaranthus retroflexus (AMARE). Kind of data set: Post-emergence herbicidal action against AMARE. Particulars: 80 g/ha, visual rating about 3 weeks after treatment vs untreated controls (100% = plants have died, 0% = like control plants). Summed up: as §3
The subject of data set [13] is Abutilon theophrasti (ABUTH). Kind of data set: Post-emergence herbicidal action against ABUTH. Particulars: 80 g/ha, visual rating about 3 weeks after treatment vs untreated controls (100% = plants have died, 0% = like control plants). In a few lines: as §3
The subject of data set [14] is Echinochloa crus-galli (ECHCG). Kind of data set: Post-emergence herbicidal action against ECHCG. Particulars: dosage 80 g/ha. Summed up:
as §3

The subject of data set [15] is Amaranthus retroflexus (AMARE). Kind of data set: Pre-emergence herbicidal action against AMARE. Particulars: 320 g/ha, visual scoring after about 3 weeks vs untreated controls. In a few lines: as §1
The test system of data set [16] is Lolium rigidum (LOLRI). Kind of data set: Pre-emergence herbicidal action against LOLRI. Particulars: dosage 320 g/ha. Summed up:
as §1

The subject of data set [17] is Verconica persica (VERPE). Kind of data set: Pre-emergence herbicidal action against VERPE. Particulars: dosage 320 g/ha. In a few lines: as §1
Data set [18] deals with Matricaria inodora (MATIN). Kind of data set: Post-emergence herbicidal action against MATIN. Particulars: dosage 80 g/ha. Summed up:
as §3

The test system of data set [19] is Polygonum convolvulus (POLCO). Kind of data set: Pre-emergence herbicidal action against POLCO. Particulars: dosage 320 g/ha. In a few lines: as §1
For data set [20], the system named is Setaria viridis (SETVI). Kind of data set: Pre-emergence herbicidal action against SETVI. Particulars: dosage 320 g/ha. In a few lines: as §1
For data set [21], the system named is Echinochloa crus-galli (ECHCG). Kind of data set: Pre-emergence herbicidal action against ECHCG. Particulars: dosage 320 g/ha. Summed up: as §1
The subject of data set [22] is Lolium rigidum (LOLRI). Kind of data set: Post-emergence herbicidal action against LOLRI. Particulars: dosage 80 g/ha. In a few lines: as §3
The next data set has as its system Brassica napus (BRSNW). Particulars: 80 g/ha, crop plant compatibility, in comparison to untreated controls. In a few lines:
as §2

Where [23] appears, read: 20 g/ha, effect vs untreated controls.
The mark [24] stands for this setting: 80 g/ha, effect in comparison to untreated controls.

Take `COC(=O)CN(C)C(=O)COc1nn(-c2ccccn2)c(-c2ccc(F)nc2)c1Br` [Example I-114]: in [1] (dosage 320 g/ha), the “Pre-emergence action against DIGSA in %” value is listed as 90%. Moreover, the “Pre-emergence action against ORYSA in %” value with Oryza sativa (ORYSA) [2] (80 g/ha) and with Oryza sativa (ORYSA) [2] (320 g/ha) was 0% in each case. Moreover, the “Pre-emergence action against TRZAS in %” value in data set [3] (80 g/ha) came to 20%. For the same compound, the “Pre-emergence action against ZEAMX in %” value in the data set on Zea mays (ZEAMX) [4] (80 g/ha) amounted to 10%; with Zea mays (ZEAMX) [4] (320 g/ha), 20%. For the same compound, in data set [5], the “Post-emergence action against ALOMY in %” value worked out at 90%. Besides, in the data set on Setaria viridis (SETVI) [6], the “Post-emergence action against SETVI in %” value turned out to be 80%. In data set [7], the “Pre-emergence action against ALOMY” value amounted to 100%. For the same compound, the “Post-emergence action against GLXMA in %” value in the data set on Glycine max (GLXMA) (20 g/ha) and in the data set on Glycine max (GLXMA) (80 g/ha) was 0% each time. In addition, the “Post-emergence action against ORYSA in %” value with Oryza sativa (ORYSA) [8] (setting [23]) and in the data set with Oryza sativa (ORYSA) [8] (setting [24]) was 0% in each case. For the same compound, the “Post-emergence action against TRZAS in %” value in [9] (20 g/ha) and in [9] (80 g/ha) was 0% each time. Moreover, the “Post-emergence action against ZEAMX in % (crop plant compatibility)” value with Zea mays (ZEAMX) [10] is recorded as 0%. The “Post-emergence action against ZEAMX in %” value in the data set on Zea mays (ZEAMX) [10] is listed as 0%. The “Pre-emergence action against VIOTR in %” value with Viola tricolor (VIOTR) (320 g/ha, Viola tricolor) was determined as 90%; with Viola tricolor (VIOTR) (dosage 80 g/ha) it was 80%.

In the case of `O=C(O)CSc1nn(-c2ccccn2)c(-c2cncc(Cl)c2)c1Br` [Example I-126], the “Pre-emergence action against DIGSA in %” value in [1] (80 g/ha, visual scoring after about 3 weeks vs untreated controls) is given as 90%; in data set [1] (dosage 320 g/ha), 100%. The “Pre-emergence action against ORYSA in %” value with Oryza sativa (ORYSA) [2] (80 g/ha) came out at 20%. For the same compound, the “Pre-emergence action against TRZAS in %” value in [3] (80 g/ha) was determined as 20%. Also, the “Pre-emergence action against MATIN in %” value in data set [11] came to 90%. Besides, the “Post-emergence action against AMARE in %” value in data set [12] came to 80%. Also, the “Post-emergence action against SETVI in %” value in the data set with Setaria viridis (SETVI) [6] is on record as 80%. For the same compound, the “Post-emergence action against ABUTH in %” value in [13] is reported as 80%. The “Post-emergence action against ECHCG in %” value in [14] is on record as 80%. For the same compound, in data set [15], the “Pre-emergence action against AMARE in %” value was 100%. In the data set on Lolium rigidum (LOLRI) [16], the “Pre-emergence action against LOLRI in %” value came out at 100%. Besides, the “Pre-emergence action against ALOMY” value in data set [7] came out at 80%. The “Post-emergence action against GLXMA in %” value in the data set on Glycine max (GLXMA) (20 g/ha) turned out to be 20%. Moreover, the “Pre-emergence action against VERPE in %” value in data set [17] stood at 80%. Moreover, the “Post-emergence action against ORYSA in %” value in the data set on Oryza sativa (ORYSA) [8] (setting [23]) and in the data set on Oryza sativa (ORYSA) [8] (setting [24]) was 0% throughout. Moreover, the “Post-emergence action against TRZAS in %” value in [9] (20 g/ha) is recorded as 20%. The “Post-emergence action against ZEAMX in % (crop plant compatibility)” value with Zea mays (ZEAMX) [10] was 10%. Moreover, the “Post-emergence action against MATIN in %” value in data set [18] was 80%. In data set [19], the “Pre-emergence action against POLCO in %” value worked out at 90%. In addition, the “Pre-emergence action against SETVI in %” value in the data set with Setaria viridis (SETVI) [20] was 90%. Also, the “Pre-emergence action against VIOTR in %” value in the data set with Viola tricolor (VIOTR) (320 g/ha, Viola tricolor) is listed as 100%; in the data set on Viola tricolor (VIOTR) (dosage 80 g/ha), 100%. In [21], the “Pre-emergence action against ECHCG in %” value is listed as 90%. In addition, the “Post-emergence action against LOLRI in %” value with Lolium rigidum (LOLRI) [22] was 80%.

`COC(=O)COc1nn(-c2ncccc2F)c(-c2cncc(F)c2)c1Br` [Example I-49]: the “Pre-emergence action against ORYSA in %” value stood at 10% in the data set on Oryza sativa (ORYSA) [2] (80 g/ha) and 20% with Oryza sativa (ORYSA) [2] (320 g/ha). The “Pre-emergence action against TRZAS in %” value in data set [3] (80 g/ha) and in [3] (320 g/ha) was 0% each time. For the same compound, the “Pre-emergence action against ZEAMX in %” value with Zea mays (ZEAMX) [4] (80 g/ha) and in the data set with Zea mays (ZEAMX) [4] (320 g/ha) was 0% throughout. For the same compound, the “Pre-emergence action against BRSNW in %” value with Brassica napus (BRSNW) is on record as 10%. The “Post-emergence action against GLXMA in %” value in the data set with Glycine max (GLXMA) (20 g/ha) is 10%. Moreover, the “Post-emergence action against ORYSA in %” value in the data set with Oryza sativa (ORYSA) [8] (setting [23]) is on record as 0%; in the data set on Oryza sativa (ORYSA) [8] (setting [24]), 10%. The “Post-emergence action against TRZAS in %” value was 0% in data set [9] (20 g/ha) and 10% in data set [9] (80 g/ha). Besides, the “Post-emergence action against ZEAMX in % (crop plant compatibility)” value in the data set with Zea mays (ZEAMX) [10] came out at 0%. For the same compound, the “Post-emergence action against ZEAMX in %” value with Zea mays (ZEAMX) [10] stood at 10%.
